Entries after “also recorded” stand apart in the source; their conditions may differ.
Test system: patients with advanced and/or treatment-refractory solid tumors
Experiment: Safety and tolerability: adverse events
Type: in vivo, human
[1] = TID-fasted (n = 32), All grades

## O=C(Cc1cccc(OC(F)(F)F)c1)Nc1ccc(CCCCc2nnc(NC(=O)Cc3ccccn3)s2)nn1 [telaglenastat, Telaglenastat]
17 of 120 patients
  Patients with dose reductions: 14%
50 of 120 patients, primarily due to AEs
  Patients with dose interruptions: 42%
100–800 mg TID-fasted, 600–1,000 mg BID-fed
  Maximum tolerated dose (MTD): not reached; also recorded: not established
BID-fed (n = 88), All grades
  Abdominal distension (treatment-related AE): 2 (2.3) n (%)
  Activated partial thromboplastin time prolonged (treatment-related AE): 2 (2.3) n (%)
  Alanine aminotransferase increased (treatment-related AE): 14 (15.9) n (%)
  Ammonia increased (treatment-related AE): 2 (2.3) n (%)
  Anemia (treatment-related AE): 5 (5.7) n (%)
  Aspartate aminotransferase increased (treatment-related AE): 10 (11.4) n (%)
  Blood alkaline phosphatase increased (treatment-related AE): 6 (6.8) n (%)
  Blood bilirubin increased (treatment-related AE): 3 (3.4) n (%)
  Blood creatinine increased (treatment-related AE): 4 (4.5) n (%)
  Constipation (treatment-related AE): 3 (3.4) n (%)
  Decreased appetite (treatment-related AE): 8 (9.1) n (%)
  Diarrhea (treatment-related AE): 2 (2.3) n (%)
  Dysgeusia (treatment-related AE): 2 (2.3) n (%)
  Dyspepsia (treatment-related AE): 2 (2.3) n (%)
  Fatigue (treatment-related AE): 21 (23.9) n (%)
  Gastroesophageal reflux disease (treatment-related AE): 2 (2.3) n (%)
  Hypomagnesemia (treatment-related AE): 4 (4.5) n (%)
  Hyponatremia (treatment-related AE): 2 (2.3) n (%)
  Nausea (treatment-related AE): 21 (23.9) n (%)
  Neuropathy peripheral (treatment-related AE): 2 (2.3) n (%)
  Patients with ≥1 treatment-emergent AE: 84 (95.5) n (%)
  Patients with ≥1 treatment-related AE: 64 (72.7) n (%)
  Photophobia (treatment-related AE): 12 (13.6) n (%)
  Photopsia (treatment-related AE): 2 (2.3) n (%)
  Thrombocytopenia (treatment-related AE): 4 (4.5) n (%)
  Vision blurred (treatment-related AE): 3 (3.4) n (%)
  Vomiting (treatment-related AE): 5 (5.7) n (%)
  Weight decreased (treatment-related AE): 3 (3.4) n (%)
  γ-Glutamyltransferase increased (treatment-related AE): 7 (8.0) n (%)
BID-fed (n = 88), Grade 3
  Abdominal distension (treatment-related AE): 0 n (%)
  Activated partial thromboplastin time prolonged (treatment-related AE): 0 n (%)
  Alanine aminotransferase increased (treatment-related AE): 2 (2.3) n (%)
  Ammonia increased (treatment-related AE): 0 n (%)
  Anemia (treatment-related AE): 1 (1.1) n (%)
  Aspartate aminotransferase increased (treatment-related AE): 1 (1.1) n (%)
  Blood alkaline phosphatase increased (treatment-related AE): 1 (1.1) n (%)
  Blood bilirubin increased (treatment-related AE): 0 n (%)
  Blood creatinine increased (treatment-related AE): 0 n (%)
  Constipation (treatment-related AE): 0 n (%)
  Decreased appetite (treatment-related AE): 0 n (%)
  Diarrhea (treatment-related AE): 0 n (%)
  Dysgeusia (treatment-related AE): 0 n (%)
  Dyspepsia (treatment-related AE): 0 n (%)
  Fatigue (treatment-related AE): 0 n (%)
  Gastroesophageal reflux disease (treatment-related AE): 0 n (%)
  Hypomagnesemia (treatment-related AE): 0 n (%)
  Hyponatremia (treatment-related AE): 0 n (%)
  Nausea (treatment-related AE): 0 n (%)
  Neuropathy peripheral (treatment-related AE): 0 n (%)
  Patients with ≥1 treatment-emergent AE: 28 (31.8) n (%)
  Patients with ≥1 treatment-related AE: 3 (3.4) n (%)
  Photophobia (treatment-related AE): 0 n (%)
  Photopsia (treatment-related AE): 0 n (%)
  Thrombocytopenia (treatment-related AE): 0 n (%)
  Vision blurred (treatment-related AE): 0 n (%)
  Vomiting (treatment-related AE): 0 n (%)
  Weight decreased (treatment-related AE): 0 n (%)
  γ-Glutamyltransferase increased (treatment-related AE): 2 (2.3) n (%)
BID-fed (n = 88), Grade 4
  Abdominal distension (treatment-related AE): 0 n (%)
  Activated partial thromboplastin time prolonged (treatment-related AE): 0 n (%)
  Alanine aminotransferase increased (treatment-related AE): 0 n (%)
  Ammonia increased (treatment-related AE): 0 n (%)
  Anemia (treatment-related AE): 0 n (%)
  Aspartate aminotransferase increased (treatment-related AE): 0 n (%)
  Blood alkaline phosphatase increased (treatment-related AE): 0 n (%)
  Blood bilirubin increased (treatment-related AE): 0 n (%)
  Blood creatinine increased (treatment-related AE): 0 n (%)
  Constipation (treatment-related AE): 0 n (%)
  Decreased appetite (treatment-related AE): 0 n (%)
  Diarrhea (treatment-related AE): 0 n (%)
  Dysgeusia (treatment-related AE): 0 n (%)
  Dyspepsia (treatment-related AE): 0 n (%)
  Fatigue (treatment-related AE): 0 n (%)
  Gastroesophageal reflux disease (treatment-related AE): 0 n (%)
  Hypomagnesemia (treatment-related AE): 0 n (%)
  Hyponatremia (treatment-related AE): 0 n (%)
  Nausea (treatment-related AE): 0 n (%)
  Neuropathy peripheral (treatment-related AE): 0 n (%)
  Patients with ≥1 treatment-emergent AE: 5 (5.7) n (%)
  Patients with ≥1 treatment-related AE: 0 n (%)
  Photophobia (treatment-related AE): 0 n (%)
  Photopsia (treatment-related AE): 0 n (%)
  Thrombocytopenia (treatment-related AE): 0 n (%)
  Vision blurred (treatment-related AE): 0 n (%)
  Vomiting (treatment-related AE): 0 n (%)
  Weight decreased (treatment-related AE): 0 n (%)
  γ-Glutamyltransferase increased (treatment-related AE): 0 n (%)
BID-fed schedule
  Grade 3/4 ALT increase: 2%
  Grade 3/4 AST increase: 1%
BID-fed, 3/88
  Incidence of treatment-related grade 3/4 AEs: 3%
[1]
  Abdominal distension (treatment-related AE): 0 n (%)
  Activated partial thromboplastin time prolonged (treatment-related AE): 0 n (%)

Reference: article PMC9401498 (Clinical Cancer Research, 2021)
